Experimental data from US11872210B2, “Thiol isomerases inhibitors and use thereof” (WESTERN NEW ENGLAND UNIVERSITY, priority 2017, dated 2024).

How the values were obtained:
ERp5 = target: T1, ERp5 (Homo sapiens, UniProt Q15084); assay: Insulin-based turbidometric assay of thiol isomerase inhibitory activity (ERp5); assay type: biochemical; conditions: insulin turbidity assay, 6 point dose curve
T1 construct: purchased AbCam (Cambridge Mass.)
T1 sequence (Q15084 20-440): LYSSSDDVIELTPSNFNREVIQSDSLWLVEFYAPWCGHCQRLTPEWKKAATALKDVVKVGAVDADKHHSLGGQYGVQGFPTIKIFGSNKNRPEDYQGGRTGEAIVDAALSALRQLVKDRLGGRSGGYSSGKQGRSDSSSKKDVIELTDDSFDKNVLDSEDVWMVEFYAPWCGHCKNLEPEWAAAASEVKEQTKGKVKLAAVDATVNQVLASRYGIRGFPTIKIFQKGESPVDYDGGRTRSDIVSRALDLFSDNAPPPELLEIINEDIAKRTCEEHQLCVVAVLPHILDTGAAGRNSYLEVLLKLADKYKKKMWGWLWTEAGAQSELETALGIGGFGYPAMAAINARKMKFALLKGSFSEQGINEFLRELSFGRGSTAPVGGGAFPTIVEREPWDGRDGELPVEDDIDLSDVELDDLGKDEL
From the text: (§1) Recombinant thiol isomerases were purchased from AbCam (Cambridge Mass.), recombinant insulin (bovine), bacitracin, dithiothreitol (DTT) buffers and all other chemicals were purchased from Sigma Aldrich (St. Louis, Mo.; while 384 well clear bottom plates were purchased from Corning (Corning, N.Y.).
(§2) The catalytic reduction of insulin by thiol isomerases in the presence of DTT results in aggregation of insulin chains. The turbidity of insulin aggregation can be monitored spectrophotometrically at an optical density (OD) at 650 nm. This approach has been used by multiple groups to identify thiol isomerase inhibitors in either a kinetic or endpoint fashion. A final concentration of either 10 μg/mL PDI, 30 μg/mL ERp5, 10 μg/mL ERp72 or 10 μg/mL thioredoxin, 125 μM insulin and 2 mM ethylenediaminetetraacetic acid (EDTA) in 30 μL of 100 mM potassium phosphate buffer was added to each experimental well plate, while negative control wells lacked any thiol isomerase. Lead compounds were diluted in a 6 point dose curve and the turbidity of insulin aggregation was measured kinetically each minute for 75 minutes using a Spectramax M3 plate reader (Molecular Devices, Sunnyvale, Calif.) Specificity assay utilized the insulin turbidity assay as well.

Tail bleeding assay = assay type: in vivo, C57/BL6 mice; conditions: infused to circulating concentration of 20 μM, 5 minutes prior to tail biopsy
Procedure: The effects of zafirlukast on thrombus formation in mice was determined following laser injury of cremaster muscle arterioles, and observed by intravital microscopy. Male C57/BL6 mouse platelets were labelled with DyLight 649-conjugated anti-GPIb antibody (0.2 μg/g body weight) and either vehicle or zafirlukast (ZFL) infused (at a volume required to achieve a circulating concentration of 20 μM). Following laser injury, images were recorded for 5 minutes. […] FIG. 6 illustrates the effects of ZFL on bleeding were determined by tail bleeding assay. Vehicle or ZFL (at a volume required to achieve a circulating concentration of 20 μM) were infused into the femoral veins of C57/BL6 mice, 5 minutes prior to tail biopsy. 0.5 cm of tail tip was excised and blood collected in phosphate-buffered saline (PBS), and time to cessation of bleeding was recorded. […] Graphs represent mean±SEM, n=10 per treatment, data analyzed by Student's T test, ***p<0.005.

ERp72 = target: T2, ERp72 (Homo sapiens, UniProt P13667); assay: Insulin-based turbidometric assay of thiol isomerase inhibitory activity (ERp72); assay type: biochemical; conditions: insulin turbidity assay, 6 point dose curve
T2 construct: purchased AbCam (Cambridge Mass.)
T2 sequence (P13667 21-645): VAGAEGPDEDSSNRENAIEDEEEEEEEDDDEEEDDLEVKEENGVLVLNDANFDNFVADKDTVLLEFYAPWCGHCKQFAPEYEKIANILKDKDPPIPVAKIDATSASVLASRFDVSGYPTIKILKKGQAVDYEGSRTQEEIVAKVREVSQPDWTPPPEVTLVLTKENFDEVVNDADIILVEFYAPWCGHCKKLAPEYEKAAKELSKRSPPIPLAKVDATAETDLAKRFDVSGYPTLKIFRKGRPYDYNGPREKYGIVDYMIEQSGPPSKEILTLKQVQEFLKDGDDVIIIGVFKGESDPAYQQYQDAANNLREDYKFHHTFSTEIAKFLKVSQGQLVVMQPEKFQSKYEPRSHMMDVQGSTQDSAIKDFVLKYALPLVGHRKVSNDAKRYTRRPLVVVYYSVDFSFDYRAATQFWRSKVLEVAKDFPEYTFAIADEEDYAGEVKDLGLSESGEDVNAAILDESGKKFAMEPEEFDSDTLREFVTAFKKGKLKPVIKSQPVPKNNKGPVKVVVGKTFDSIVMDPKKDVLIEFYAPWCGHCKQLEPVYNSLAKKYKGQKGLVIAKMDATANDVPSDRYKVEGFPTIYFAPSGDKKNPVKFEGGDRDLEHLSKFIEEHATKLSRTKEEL
From the text: as §1, §2

platelets = assay: Platelet spreading upon collagen; assay type: cell-based; conditions: 0.1 μM-10 μM
Procedure: Platelet responses in the presence of zafirlukast, (0.1 μM-10 μM) were tested in a range of platelet functional assays including aggregation, granule secretion and spreading studies.

[1] = system: EGFR activation and downstream signaling (STAT3 phosphorylation); assay: Western blot of EGFR signaling in HCT116 cells; assay type: cell-based, human; conditions: 24 hours
Procedure: HCT116 (human colon cancer) cells were incubated with drug for 24 hours and total cellular extracts prepared. Protein levels were normalized, protein loaded on SDS-polyacrylamide gels and then electrophoresed before transferring to a PVDF membrane. The membranes were probed with primary antibodies of interest, followed by secondary antibodies conjugated with horseradish peroxidase.

ERp57 = target: T3, ERp57 (Homo sapiens, UniProt P30101); assay: Insulin-based turbidometric assay of thiol isomerase inhibitory activity (ERp57); assay type: biochemical; conditions: insulin turbidity assay, 6 point dose curve
T3 construct: purchased AbCam (Cambridge Mass.)
T3 sequence (P30101 25-505): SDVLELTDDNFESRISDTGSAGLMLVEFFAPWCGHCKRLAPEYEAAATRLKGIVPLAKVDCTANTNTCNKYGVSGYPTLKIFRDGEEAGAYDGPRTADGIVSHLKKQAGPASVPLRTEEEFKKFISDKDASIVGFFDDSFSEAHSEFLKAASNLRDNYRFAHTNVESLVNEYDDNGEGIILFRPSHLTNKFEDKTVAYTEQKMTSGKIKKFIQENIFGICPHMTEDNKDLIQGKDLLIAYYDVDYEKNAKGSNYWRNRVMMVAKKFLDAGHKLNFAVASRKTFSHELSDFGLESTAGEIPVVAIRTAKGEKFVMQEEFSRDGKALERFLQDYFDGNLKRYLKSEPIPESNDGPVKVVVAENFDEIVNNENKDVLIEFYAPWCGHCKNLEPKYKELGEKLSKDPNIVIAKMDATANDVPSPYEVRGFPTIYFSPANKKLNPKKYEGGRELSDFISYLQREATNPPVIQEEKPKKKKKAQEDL

COc1cc(C(=O)NS(=O)(=O)c2ccccc2C)ccc1Cc1cn(C)c2ccc(NC(=O)OC3CCCC3)cc12 [zafirlukast, 4-(5-cyclopentyloxycarbonylamino-1-methylindol-3-ylmethyl)-3-methoxy-N-o-tolylsulfonylbenzamide]
inhibitory range on ERp5 (ERp5): 10 to 300 µM
bleeding time (time to cessation of bleeding), in words (Tail bleeding assay): no change in bleeding time
inhibitory range on ERp72 (ERp72): 10 to 300 µM
platelet spreading upon collagen (in words) (platelets): inhibit
inhibition of EGFR activation and downstream signaling (STAT3 phosphorylation), in words [1]: almost complete inhibition
inhibitory range on ERp57 (ERp57): 30 to 300 µM
